Data reported in the supplement of paper PMC10307832.

Legend:
Assay in all cases: relative viability (nuclei count vs DMSO), 5 days (fraction); higher = more cells survive
NCI-H1437 = tested on: NCI-H1437
Summary of the method: (§1)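 Lung cancer cell lines were pin-tool dosed in 1536-well plates on the day after seeding, with either a lone drug or a fixed anchor-drug dose plus five library-drug doses (not always all listed) in √10 steps. Nuclei were counted on 4× images after 5 days. Relative viability is the ratio of treated-well to vehicle-well nuclei counts, with each value a median of duplicate plates.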

NCI-H23 = tested on: NCI-H23
Summary of the method: as §1

NCI-H2342 = tested on: NCI-H2342
Summary of the method: as §1

BEN = tested on: BEN
Summary of the method: as §1

NCI-H441 = tested on: NCI-H441
Summary of the method: as §1

EKVX = tested on: EKVX
Summary of the method: as §1

SK-MES-1 = tested on: SK-MES-1
Summary of the method: as §1

NCI-H650 = tested on: NCI-H650
Summary of the method: as §1

A-427 = tested on: A-427
Summary of the method: as §1

NCI-H596 = tested on: NCI-H596
Summary of the method: as §1

HARA = tested on: HARA
Summary of the method: as §1

## CC(=O)O[C@@]12CO[C@@H]1C[C@H](O)[C@@]1(C)C(=O)[C@H](O)C3=C(C)[C@@H](OC(=O)[C@H](O)[C@@H](NC(=O)OC(C)(C)C)c4ccccc4)C[C@@](O)([C@@H](OC(=O)c4ccccc4)[C@H]21)C3(C)C [Docetaxel] + Cc1cc(Nc2cc(N3CCN(C)CC3)nc(Sc3ccc(NC(=O)C4CC4)cc3)n2)n[nH]1 [Tozasertib] (partner 0.1 µM)
NCI-H1437; first compound 0.006325 µM
  relative viability: 0.273
NCI-H1437; first compound 0.02 µM
  relative viability: 0.201
NCI-H23; first compound 0.0002 µM
  relative viability: 0.39
NCI-H23; first compound 0.000632 µM
  relative viability: 0.314
NCI-H23; first compound 0.002 µM
  relative viability: 0.195
NCI-H23; first compound 0.006325 µM
  relative viability: 0.198
NCI-H23; first compound 0.02 µM
  relative viability: 0.166
NCI-H2342; first compound 0.0002 µM
  relative viability: 0.584
NCI-H2342; first compound 0.000632 µM
  relative viability: 0.539
NCI-H2342; first compound 0.002 µM
  relative viability: 0.543
NCI-H2342; first compound 0.006325 µM
  relative viability: 0.466
NCI-H2342; first compound 0.02 µM
  relative viability: 0.297
BEN; first compound 0.0002 µM
  relative viability: 0.499
BEN; first compound 0.000632 µM
  relative viability: 0.503
BEN; first compound 0.002 µM
  relative viability: 0.473
BEN; first compound 0.006325 µM
  relative viability: 0.418
BEN; first compound 0.02 µM
  relative viability: 0.426
NCI-H441; first compound 0.0002 µM
  relative viability: 0.634
NCI-H441; first compound 0.000632 µM
  relative viability: 0.489
NCI-H441; first compound 0.002 µM
  relative viability: 0.293
NCI-H441; first compound 0.006325 µM
  relative viability: 0.306
NCI-H441; first compound 0.02 µM
  relative viability: 0.248
EKVX; first compound 0.0002 µM
  relative viability: 0.519
EKVX; first compound 0.000632 µM
  relative viability: 0.409
EKVX; first compound 0.002 µM
  relative viability: 0.224
EKVX; first compound 0.006325 µM
  relative viability: 0.212
EKVX; first compound 0.02 µM
  relative viability: 0.149
SK-MES-1; first compound 0.0002 µM
  relative viability: 0.974
SK-MES-1; first compound 0.000632 µM
  relative viability: 0.459
SK-MES-1; first compound 0.002 µM
  relative viability: 0.252
SK-MES-1; first compound 0.006325 µM
  relative viability: 0.166
SK-MES-1; first compound 0.02 µM
  relative viability: 0.134
NCI-H650; first compound 0.0002 µM
  relative viability: 0.666
NCI-H650; first compound 0.000632 µM
  relative viability: 0.381
NCI-H650; first compound 0.002 µM
  relative viability: 0.25
NCI-H650; first compound 0.006325 µM
  relative viability: 0.25
NCI-H650; first compound 0.02 µM
  relative viability: 0.182
A-427; first compound 0.0002 µM
  relative viability: 0.176
A-427; first compound 0.000632 µM
  relative viability: 0.237
A-427; first compound 0.002 µM
  relative viability: 0.193
A-427; first compound 0.006325 µM
  relative viability: 0.162
A-427; first compound 0.02 µM
  relative viability: 0.132
NCI-H596; first compound 0.0002 µM
  relative viability: 0.838
NCI-H596; first compound 0.000632 µM
  relative viability: 0.754
NCI-H596; first compound 0.002 µM
  relative viability: 0.365
NCI-H596; first compound 0.006325 µM
  relative viability: 0.361
NCI-H596; first compound 0.02 µM
  relative viability: 0.25
HARA; first compound 0.0002 µM
  relative viability: 0.0918
HARA; first compound 0.000632 µM
  relative viability: 0.102
HARA; first compound 0.002 µM
  relative viability: 0.0951
HARA; first compound 0.006325 µM
  relative viability: 0.0945
HARA; first compound 0.02 µM
  relative viability: 0.0738
